Patent publication US20220380341A1, “INHIBITORS OF HIV-1 NEF FOR THE TREATMENT OF HIV DISEASE” (priority 2018, published 2022)
Where “and” joins values, the source holds several entries; their conditions need not be identical. Equal values may be shown once. Read-outs that look alike come from different tables or passages of the source.

What was measured:
HIV-1NL4-3 = assay: HIV-1 infectivity assay in TZM-bl reporter cell line (LTR-luciferase, 48 h); type: cell-based; settings: for inhibition at 1 µM: Human immunodeficiency virus 1, TZM-bl
How it was run: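 Compounds were tested at 1 μM in TZM-bl cells infected with HIV-1NL4-3. Infectivity was read as luciferase signal 48 h after infection and expressed as percent inhibition, normalized between DMSO-treated wild-type infection (0%) and DMSO-treated Nef-defective HIV-1 infection (100% of the Nef-dependent effect).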

TZM-bl cell line = type: cell-based; settings: 1 μM
How it was run: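 Nef-dependent infectivity in TZM-bl cells: HIV-1NL4-3 infection with 1 μM compound, luciferase read at 48 h, normalized against DMSO wild-type and Nef-defective controls. Compound cytotoxicity in uninfected cells measured by Cell Titer Blue.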

HIV-1 NefNL4-3 = HIV-1 NefNL4-3 (Human immunodeficiency virus type 1 group M subtype B, UniProt P03406, A33V/T15A/T51N/V11I); assay: Surface plasmon resonance binding to recombinant full-length Nef (NL4-3); settings: for RU30/RUNef (extent of binding): response units at 30 μM relative to Nef immobilized on the SPR chip
[1] = 1.0 μM, TZM-bl reporter cell line, Table 4, read-out: % Infectivity Inhibition
[2] = Table 1, TZM-bl cells, 1 μM, 48 h, 100% = Nef-defective HIV-1
[3] = KD, M, Table 4, SPR fit 2-step induced fit, KD = koff/kon × koff2/(koff2 + kon2)
[4] = Nef NL4-3 Binding, SPR 1:1 or 2-site fitting KD2, Table 1, 2-site fit, second component
[5] = Table 4, 2-step induced fit, T = 1/koff2
[6] = read-out: Nef NL4-3 Binding, SPR 1:1 or 2-site fitting KD2, Table 1, 2-site fit, second component
[7] = 48 h, Table 1, TZM-bl cells, 1 μM, 48 h, 100% = Nef-defective HIV-1, read-out: HIV-1 Infectivity % Inhibition Norm. to Δ-Nef @ 1 μM
[8] = KD, M, Table 4, SPR fit 1:1 Langmuir, KD = koff/kon
[9] = Table 4, 1:1 Langmuir fit, T = 1/koff
[10] = Nef NL4-3 Binding, SPR 2-state fitting KD, Table 1, 2-step induced-fit model

Row | SMILES | inhibition at 1 µM (HIV-1NL4-3; [1]) [%] | HIV-1 Infectivity % Inhibition Norm. to Δ-Nef @ 1 μM (HIV-1NL4-3; [2]) [%] | % Cell Viability (TZM-bl cell line; human) [%] | Kd (HIV-1 NefNL4-3) | Kd (HIV-1 NefNL4-3; [3]) [nM] | Kd (HIV-1 NefNL4-3; [4]) [nM] | T, minutes (residence time) (HIV-1 NefNL4-3; [5]) | Kd (HIV-1 NefNL4-3; [6]) [nM] | RU30/RUNef (extent of binding) (HIV-1 NefNL4-3) | inhibition at 1 µM (HIV-1NL4-3; [7]) [%] | Percent Viability @ 1 μM (TZM-bl cells) (TZM-bl cell line; human) [%] | Kd (HIV-1 NefNL4-3; [8]) [nM] | T, minutes (residence time) (HIV-1 NefNL4-3; [9]) [E + 00 minutes] | Kd (HIV-1 NefNL4-3; [10]) [nM] | Percent Viability @ 1 μM (TZM-bl cells) (TZM-bl cell line; Table 1, uninfected TZM-bl cells, Cell Titer Blue) [%] | Kd (HIV-1 NefNL4-3; Table 1, 1:1 Langmuir fit where the KD2 cell says '1 to 1 fitting', else 2-site fit, read-out: Nef NL4-3 Binding, SPR 1:1 or 2-site fitting KD1) [nM] | inhibition at 1 µM (HIV-1NL4-3; 48 h, Table 2, TZM-bl cells, 1 μM, 48 h, 100% = Nef-defective HIV-1, read-out: HIV-1 Infectivity % Inhibition Norm. to Δ-Nef @ 1 μM) [%] | Nef NL4-3 Binding, SPR 1:1 or 2-site fitting KD1 (HIV-1 NefNL4-3; Table 2, 1:1 Langmuir fit where the KD2 cell says '1 to 1 fitting', else 2-site fit)
1 | Cn1c(-n2nc(-c3ccc(C(F)(F)F)cc3)c(CCc3ccc(F)cc3)c2O)nc2ccccc21 [Compound I-401, 4-[2-(4-fluorophenyl)ethyl]-1-(1-methyl-1H-1,3-benzodiazol-2-yl)-3-[4-(trifluoromethyl)phenyl]-1H-pyrazol-5-ol] | 99.6 | 52.3 | 86.4 | 1890 nM and 237 nM | 78400 | 2470 | 1.45E + 03 minutes | 18100 | 2.01E- 02 |  |  |  |  |  |  |  |  | 
2 | Cn1c(-n2nc(-c3ccc(S(C)(=O)=O)cc3)c(CCc3ccc(F)cc3)c2O)nc2ccccc21 [Compound I-403, 4-[2-(4-fluorophenyl)ethyl]-3-(4-methanesulfonylphenyl)-1-(1-methyl-1H-1,3-benzodiazol-2-yl)-1H-pyrazol-5-ol] | 4.1 |  | 99.9 | 2400 nM |  |  |  |  | 2.88E- 03 | 4.1 | 99.9 | 2400 | 3.63 |  |  |  |  | 
3 | CCOC(=O)c1nn(-c2nc3ccccc3[nH]2)c(O)c1CCc1ccc(F)cc1 [Compound I-404, ethyl 1-(1H-1,3-benzodiazol-2-yl)-4-[2-(4-fluorophenyl)ethyl]-5-hydroxy-1H-pyrazole-3-carboxylate] |  |  |  | 128 nM |  |  |  |  |  | 1.3 | 100.5 |  |  |  |  |  |  | 
4 | Cn1c(-n2nc(-c3cccc(S(C)(=O)=O)c3)c(CCc3ccc(F)cc3)c2O)nc2ccccc21 [Compound I-405, 4-[2-(4-fluorophenyl)ethyl]-3-(3-methanesulfonylphenyl)-1-(1-methyl-1H-1,3-benzodiazol-2-yl)-1H-pyrazol-5-ol] | 0 |  | 95.7 | 4390 nM |  |  |  |  | 3.25E- 03 | -9.6 | 95.7 | 4390 | 2.32 |  |  |  |  | 
5 | O=C(c1nn(-c2nc3ccccc3[nH]2)c(O)c1CCc1ccc(F)cc1)N1CCCCC1 [Compound I-406, 1-(1H-1,3-benzodiazol-2-yl)-4-[2-(4-fluorophenyl)ethyl]-3-(piperidine-1-carbonyl)-1H-pyrazol-5-ol] | 0 |  | 100 | 549 nM | 2670 | 1230 | 2.85E + 00 minutes |  | 7.13E- 03 | -4.4 | 109.7 |  |  | 2670 |  |  |  | 
6 | Oc1c(CCc2ccc(F)cc2)c(C2CCNCC2)nn1-c1nc2ccc(Cl)cc2[nH]1 [Compound I-503, 1-(5-chloro-1H-1,3-benzodiazol-2-yl)-4-[2-(4-fluorophenyl)ethyl]-3-(piperidin-4-yl)-1H-pyrazol-5-ol] | 0 |  | 90.7 | 256 nM | 0.617 |  | 3.18E + 04 minutes | 3020 | 1.05E- 02 | -94.1 | 90.7 |  |  | 0.511 |  |  |  | 
7 | Oc1c(CC2CCNCC2)c(-c2ccc(C(F)(F)F)cc2)nn1-c1nc2ccccc2[nH]1 [Compound I-504, 1-(1H-1,3-benzodiazol-2-yl)-4-[(piperidin-4-yl)methyl]-3-[4-(trifluoromethyl)phenyl]-1H-pyrazol-5-ol] |  |  |  | 10600 nM |  |  |  |  |  | -43.7 | 101.3 |  |  |  |  |  |  | 
8 | CS(=O)(=O)c1ccc(-c2nn(-c3nc4cc(Cl)ccc4[nH]3)c(O)c2CCC2CCNCC2)cc1 [Compound I-550, 1-(5-chloro-1H-1,3-benzodiazol-2-yl)-3-(4-methanesulfonylphenyl)-4-[2-(piperidin-4-yl)ethyl]-1H-pyrazol-5-ol] | 0 |  | 98.8 | 282 nM | 8.54 |  | 3.33E + 03 minutes | 6200 | 1.75E- 02 | -12.9 | 98.8 |  |  | 8.54 |  |  |  | 
9 | Oc1c(CCC2CCNCC2)c(-c2ccc(C(F)(F)F)cc2)nn1-c1nc2ccccc2[nH]1 [Compound I-552, 1-(1H-1,3-benzodiazol-2-yl)-4-[2-(piperidin-4-yl)ethyl]-3-[4-(trifluoromethyl)phenyl]-1H-pyrazol-5-ol] | 50.5 |  | 91.4 | 554 nM | 1040 |  | 2.17E + 01 minutes | 16500 | 1.04E- 02 | 50.5 | 91.4 |  |  | 749 |  |  |  | 
10 | Oc1c(CCc2ccc(F)cc2)c(CC2CCNCC2)nn1-c1nc2ccccc2[nH]1 [Compound I-553, 1-(1H-1,3-benzodiazol-2-yl)-4-[2-(4-fluorophenyl)ethyl]-3-[(piperidin-4-yl)methyl]-1H-pyrazol-5-ol] |  |  |  | 1230 nM |  |  |  |  |  | 74.3 | 62.3 |  |  |  |  |  |  | 
11 | Oc1c(CCC2CCNCC2)c(C2CC2)nn1-c1nc2cc(Cl)ccc2[nH]1 [Compound I-554, 1-(5-chloro-1H-1,3-benzodiazol-2-yl)-3-cyclopropyl-4-[2-(piperidin-4-yl)ethyl]-1H-pyrazol-5-ol] | 12.2 |  | 95.0 | 56.2 nM | 0.00315 |  | 3.33E + 06 minutes | 2130 | 3.65E- 02 | 12.2 | 95.0 |  |  | 0.00315 |  |  |  | 
12 | Oc1c(CCC2CCNCC2)c(-c2ccc(C(F)(F)F)cn2)nn1-c1nc2cc(Br)ccc2[nH]1 [Compound I-555, 1-(5-bromo-1H-1,3-benzodiazol-2-y1)-4-[2-(piperidin-4-yl)ethyl]-3-[5-(trifluoromethyl)pyridin-2-yl]-1H-pyrazol-5-ol] |  | −118.0 |  |  |  |  |  |  |  |  |  |  |  |  | 104.6 | 875 |  | 
13 | Oc1c(CCc2ccc(F)cc2)c(CC2CCCNC2)nn1-c1nc2ccccc2[nH]1 (stereo not drawn) [Compound I-556, 1-(1H-1,3-benzodiazol-2-yl)-4-[2-(4-fluorophenyl)ethyl]-3-[(piperidin-3-yl)methyl]-1H-pyrazol-5-ol] |  |  |  | 783 nM |  |  |  |  |  | 18.1 | 86.1 |  |  |  |  |  |  | 
14 | Oc1c(CCc2ccc(F)cc2)c(-c2ccc(C(F)(F)F)cn2)nn1-c1cc(C(F)(F)F)n[nH]1 [Compound I-602, 4-[2-(4-fluorophenyl)ethyl]-5′-(trifluoromethyl)-3-[5-(trifluoromethyl)pyridin-2-yl]-2′H-[1,3′-bipyrazol]-5-ol] |  |  |  |  |  |  |  |  |  |  | 97.2 |  |  |  |  |  | 73.8 | No interaction
